{"source": "patent US20230049130A1", "about": "“DEUCRAVACITINIB CRYSTAL FORM, PREPARATION METHOD THEREFOR AND USE THEREOF” (CRYSTAL PHARMACEUTICAL (SUZHOU) CO., LTD., priority 2020, published 2023)", "assay_type_in_all_cases": "physicochemical", "key": {"Bulk and tapped density": {"experiment": "Bulk and tapped density", "conditions": "for Bulk density: about 500 mg powder in 5-mL cylinder; for Tapped density: tapped 1250 times", "experimental": "About 500 mg of powder were added into a 5-mL measuring cylinder and bulk volume was recorded. Then the powder was tapped for 1250 times by ZS-2E tap density tester to make it in the tightest state and the tapped volume was recorded. The bulk density and tapped density were calculated."}, "[1]": {"experiment": "Kinetic solubility in SGF, FeSSIF and FaSSIF (HPLC)", "experimental": "When solubility test is used to predict the in vivo performance of a drug, it is critical to simulate in vivo conditions as closely as possible. Simulated gastric fluid (SGF), Fed-state simulated intestinal fluid (FeSSIF) and Fasted-state simulated intestinal fluid (FaSSIF) can be used to simulate the conditions in vivo and predict the effects of eating, thus solubilities in these media are closer to those in vivo.\n15-20 mg of Form CSIII of the present disclosure and 15-20 mg of Form A were suspended into 2.5 mL of SGF, 2.5 mL of FeSSIF, and 2.5 mL of FaSSIF to get suspensions. After equilibrated for 1 h and 4 h, concentrations of these solutions were measured by HPLC."}, "[2]": {"experiment": "Physical stability upon humidity change (DVS, XRPD)", "conditions": "cycle of 0%-95%-0%RH at 25° C.", "experimental": "Dynamic Vapor Sorption (DVS) is measured via an SMS (Surface Measurement Systems Ltd.) intrinsic DVS instrument. Its control software is DVS- Intrinsic control software, and its analysis software is DVS-Intrinsic Analysis software. Typical Parameters for DVS test are as follows: • Temperature: 25° C. • Gas and flow rate: N2, 200 mL/min • RH range: 0% RH to 95% RH\nDynamic vapor sorption (DVS) was applied to test the stability of Form CSIII. A certain amount of Form CSIII was tested in a cycle of 0%-95%-0%RH at 25° C."}, "[3]": {"experiment": "Physical stability under pressure (tableting, XRPD)", "conditions": "compressed under 5 kN, 10 kN and 20 kN", "text": "A certain amount of Form CSIII was compressed into tablets under 5 kN, 10 kN and 20 kN with suitable tableting die. Crystalline forms before and after tableting were checked by XRPD."}, "[4]": {"experiment": "Stability of Form CSIII on storage (XRPD, HPLC purity)", "conditions": "for Crystalline form after storage: XRPD", "experimental": "Approximately 5 mg of Form CSIII samples was stored under different conditions of 25° C./60%RH, 40° C./75%RH, and 60° C./75%RH. Crystalline form and chemical purity were checked by XRPD and HPLC, respectively."}, "[5]": {"experiment": "Physical stability upon grinding (XRPD)", "conditions": "ground manually 5 minutes in a mortar", "experimental": "Form CSIII sample was grounded manually for 5 minutes in a mortar. Crystalline forms before and after grinding were checked by XRPD."}, "[6]": {"conditions": "applicant's characterisation of repeated prior-art form"}}}
{"compound": "[2H]C([2H])([2H])NC(=O)c1nnc(NC(=O)C2CC2)cc1Nc1cccc(-c2ncn(C)n2)c1OC", "note": "[Form A, 6-(cyclopropanecarboxamido)-4-((2-methoxy-3-(1-methyl-1H-1,2,4-triazol-3-yl)phenyl)amino)-N-(methyl-d3) pyridazine-3-carboxamide, reference compound]", "values": [{"measurement": "Bulk density", "setting": "Bulk and tapped density", "value": 0.3899, "unit": "g/mL"}, {"measurement": "Density (in words)", "setting": "Bulk and tapped density; [6]", "value": "low density"}, {"measurement": "Tapped density", "setting": "Bulk and tapped density", "value": 0.5199, "unit": "g/mL"}, {"measurement": "Concentration", "setting": "[1]; FaSSIF, equilibrated 1 hour", "value": 13.5, "unit": "µg/mL"}, {"measurement": "Concentration", "setting": "[1]; FaSSIF, equilibrated 4 hours", "value": 13.6, "unit": "µg/mL"}, {"measurement": "Concentration", "setting": "[1]; FeSSIF, equilibrated 1 hour", "value": 82.3, "unit": "µg/mL"}, {"measurement": "Concentration", "setting": "[1]; FeSSIF, equilibrated 4 hours", "value": 68.8, "unit": "µg/mL"}, {"measurement": "Concentration", "setting": "[1]; SGF, equilibrated 1 hour", "value": 1114.1, "unit": "µg/mL"}, {"measurement": "Concentration", "setting": "[1]; SGF, equilibrated 4 hours", "value": 617.2, "unit": "µg/mL"}, {"measurement": "Solubility (in words)", "setting": "[1]; [6]", "value": "poor solubility"}]}
{"compound": "[2H]C([2H])([2H])NC(=O)c1nnc(NC(=O)C2CC2)cc1Nc1cccc(-c2ncn(C)n2)c1OC", "note": "[Form CSIII, 6-(cyclopropanecarboxamido)-4-((2-methoxy-3-(1-methyl-1H-1,2,4-triazol-3-yl)phenyl)amino)-N-(methyl-d3) pyridazine-3-carboxamide]", "values": [{"measurement": "Crystalline state after DVS test", "setting": "[2]", "value": "does not change"}, {"measurement": "Bulk density", "setting": "Bulk and tapped density", "value": 0.4276, "unit": "g/mL"}, {"measurement": "Tapped density", "setting": "Bulk and tapped density", "value": 0.5987, "unit": "g/mL"}, {"measurement": "Crystalline state after tableting", "setting": "[3]", "value": "does not change"}, {"measurement": "Time stable on storage", "setting": "[4]; 25° C./60% RH", "value": "at least 3 months"}, {"measurement": "Crystalline form after storage", "setting": "[4]; 25° C./60%RH (open), 3 months", "value": "Form CSIII"}, {"measurement": "Crystalline form after storage", "setting": "[4]; 25° C./60%RH (sealed), 3 months", "value": "Form CSIII"}, {"measurement": "Time stable on storage", "setting": "[4]; 40° C./75% RH", "value": "at least 3 months"}, {"measurement": "Crystalline form after storage", "setting": "[4]; 40° C./75%RH (open), 3 months", "value": "Form CSIII"}, {"measurement": "Crystalline form after storage", "setting": "[4]; 40° C./75%RH (sealed), 3 months", "value": "Form CSIII"}, {"measurement": "Time stable on storage", "setting": "[4]; 60° C./75% RH", "value": "at least one month"}, {"measurement": "Change in chemical purity during storage", "setting": "[4]; 60° C./75% RH, one month, open condition, HPLC", "value": 0.07, "unit": "%"}, {"measurement": "Crystalline form after storage", "setting": "[4]; 60° C./75%RH (open), one month", "value": "Form CSIII"}, {"measurement": "Crystalline form after storage", "setting": "[4]; 60° C./75%RH (sealed), one month", "value": "Form CSIII"}, {"measurement": "Concentration", "setting": "[1]; FaSSIF, equilibrated 1 hour", "value": 49, "unit": "µg/mL"}, {"measurement": "Solubility relative to that of Form A", "setting": "[1]; FaSSIF, equilibrated 1 hour", "value": 3.6, "unit": "times"}, {"measurement": "Concentration", "setting": "[1]; FaSSIF, equilibrated 4 hours", "value": 55.7, "unit": "µg/mL"}, {"measurement": "Solubility relative to that of Form A", "setting": "[1]; FaSSIF, equilibrated 4 hours", "value": 4.1, "unit": "times"}, {"measurement": "Concentration", "setting": "[1]; FeSSIF, equilibrated 1 hour", "value": 193.6, "unit": "µg/mL"}, {"measurement": "Concentration", "setting": "[1]; FeSSIF, equilibrated 4 hours", "value": 179.3, "unit": "µg/mL"}, {"measurement": "Concentration", "setting": "[1]; SGF, equilibrated 1 hour", "value": 1582.4, "unit": "µg/mL"}, {"measurement": "Concentration", "setting": "[1]; SGF, equilibrated 4 hours", "value": 1296.8, "unit": "µg/mL"}, {"measurement": "Crystalline state after grinding", "setting": "[5]", "value": "does not change"}]}
